Data published in patent US8431563B2 (priority 2010, dated 2013).
Structures can show the parent of a compound that is named as a salt.

Columns and labels:
[1] = target: T1, GKRP (Glucokinase Regulatory Protein) with human His-hepatic GK (Homo sapiens, UniProt Q14397); assay: GKRP NADPH Coupled Assay; type: biochemical; conditions: indirect measure of glucose-6-phosphate, fluorescence, 1 μM GKRP (10×), 20 nM GK (5×)
T1 sequence (Q14397 1-625): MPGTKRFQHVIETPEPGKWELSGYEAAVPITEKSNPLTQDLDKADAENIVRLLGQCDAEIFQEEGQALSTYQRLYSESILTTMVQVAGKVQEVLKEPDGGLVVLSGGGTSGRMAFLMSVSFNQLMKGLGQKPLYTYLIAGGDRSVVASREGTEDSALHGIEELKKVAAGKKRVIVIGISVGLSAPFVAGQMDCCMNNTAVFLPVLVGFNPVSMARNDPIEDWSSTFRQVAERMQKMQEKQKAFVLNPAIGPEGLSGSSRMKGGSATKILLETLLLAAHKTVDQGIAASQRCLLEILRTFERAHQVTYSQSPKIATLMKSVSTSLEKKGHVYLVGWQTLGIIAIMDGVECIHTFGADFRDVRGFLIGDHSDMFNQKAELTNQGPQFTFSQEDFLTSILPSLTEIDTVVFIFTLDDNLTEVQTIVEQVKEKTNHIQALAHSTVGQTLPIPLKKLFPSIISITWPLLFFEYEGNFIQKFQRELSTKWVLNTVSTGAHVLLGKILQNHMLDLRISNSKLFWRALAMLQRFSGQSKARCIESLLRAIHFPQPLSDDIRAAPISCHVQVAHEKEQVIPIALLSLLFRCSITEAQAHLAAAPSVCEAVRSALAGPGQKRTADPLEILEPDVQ
Procedure: (§1) This assay is used to directly measure the formation of ^13C-glucose-6-phosphate from ^13C-glucose by liquid chromatography-mass spectrometry (LC MS/MS). Begin by preparing the following solutions: Compound Buffer (CB): 50 mM Tris, pH 7.5/4 mM MgCl2/6% DMSO/fresh 10 mM DTT from 1M frozen stock. Enzyme Buffer (EB): 50 mM Tris, pH 7.5/4 mM MgCl2/6% DMSO/fresh 0.1% BSA/fresh 0.01% Brij-35 (10% BSA and 1% Brij-35 stock). GK (Glucokinase) Working Stock (5×): Dilute human His-hepatic GK to 30 nM in EB buffer. […] After 30 minutes add 10 μl of GK Working Stock (5×). Re-seal the plate and incubate for another 30 minutes at room temperature while mixing. After the second 30 minutes, stop the reaction by the addition of 50 μl of 100% acetonitrile, seal, and mix for 5-10 minutes. Run 10 μl of this sample through the LC MS/MS (API 3200, Applied Biosystems Inc., Carlsbad, Calif.).
This assay is used as an indirect measure of glucose-6-phosphate (G6P) formed from glucose due to the enzymatic activity of glucokinase. Assay format is the same as for GKRP LC MS/MS Biochemical Assay with the following exceptions. GK Working Stock (5×): Dilute human His-hepatic GK to 20 nM in EB buffer. Stop & Detection Reagent (2×): Dilute β-nicotinamide adenine dinucleotide phosphate sodium salt (β-NADP) (Aldrich-Sigma, St. Louis, Mo.) to 2 mM from 100 mM stock (stock in 10 mM Tris, pH 9.2) and dilute glucose-6-phosphate dehydrogenase (Aldrich-Sigma, St. Louis, Mo.) to 0.04 Unit/μl from 10 Unit/μl (stock in 10 mM Tris pH 7.5/0.05% Brij-35) in 0.2 M Tris, pH 9.2/8% DMSO. After the initial 30 minute incubation add 10 μl of 20 nM GK diluted in EB (5×). Re-seal the plate and incubate for another 1 hour at room temperature while mixing. After 1 hour remove the seal and add 50 μl of Stop & Detection Reagent and incubate for 5 minutes at room temperature while mixing.

[2] = target: T1, GKRP (Glucokinase Regulatory Protein) with human His-hepatic GK; assay: GKRP LC MS/MS Biochemical Assay; conditions: 13C-glucose-6-phosphate formation, 1 μM GKRP (10×), 30 nM GK (5×)
Procedure: GKRP LC MS/MS Biochemical Assay
as §1

[3] = read-out: GK-GKRP EC50 (NADPH-coupled)
[4] = read-out: GK-GKRP EC50 (LC MS/MS)

Compound	EC50 [1, 3] [µM]	EC50 [2, 4] [µM]	EC50 ([1]; GK-GKRP EC50 (NADPH-coupled)) [µM]	EC50 ([2]; GK-GKRP EC50 (LC MS/MS)) [µM]
CC(C)CC1CN(S(=O)(=O)c2cccs2)CCN1c1ccc(C(C)(O)C(F)(F)F)cc1 (mixture of isomers) [Example 57, 1,1,1-trifluoro-2-(4-(2-(2-methylpropyl)-4-(2-thiophenylsulfonyl)-1-piperazinyl)phenyl)-2-propanol]	0.655	1.02	–	–
CC(O)(c1ccc(N2CCN(S(=O)(=O)c3cccs3)CC2CN2C[C@H]3C[C@@H]2CO3)cc1)C(F)(F)F (stereo partly drawn) [Example 50, 1,1,1-trifluoro-2-(4-(2-((1R,4R)-2-oxa-5-azabicyclo[2.2.1]hept-5-ylmethyl)-4-(2-thiophenylsulfonyl)-1-piperazinyl)phenyl)-2-propanol]	–	–	0.67	0.88
CC(O)(c1ccc(N2CCN(S(=O)(=O)c3cccs3)CC2CC#N)cc1)C(F)(F)F (mixture of isomers) [Example 55, (4-(2-thiophenylsulfonyl)-1-(4-(2,2,2-trifluoro-1-hydroxy-1-methylethyl)phenyl)-2-piperazinyl)acetonitrile]	3.03	3.94	–	–
O=S(=O)(c1ccccc1)N1CCN(c2ccc(C(O)(C(F)(F)F)C(F)(F)F)cn2)CC1 [Example 22, 1,1,1,3,3,3-hexafluoro-2-(6-(4-(phenylsulfonyl)-1-piperazinyl)-3-pyridinyl)-2-propanol]	–	–	2.73	2.08
Cc1ccc(S(=O)(=O)N2CCN(c3ccc(C(O)(C(F)(F)F)C(F)(F)F)cc3)CC2)s1 [Example 8, 1,1,1,3,3,3-hexafluoro-2-(4-(4-((5-methyl-2-thiophenyl)sulfonyl)-1-piperazinyl)phenyl)-2-propanol]	–	–	4.58	11.4
O=S(=O)(c1ccccn1)N1CCN(c2ccc(C(O)(C(F)(F)F)C(F)(F)F)cc2)CC1 [Example 7, 1,1,1,3,3,3-hexafluoro-2-(4-(4-(2-pyridinylsulfonyl)-1-piperazinyl)phenyl)-2-propanol]	–	–	3.78	3.29
O=S(=O)(c1ccccc1Cl)N1CCN(c2ccc(C(O)(C(F)(F)F)C(F)(F)F)cc2)CC1 [Example 10, 2-(4-(4-((2-chlorophenyl)sulfonyl)-1-piperazinyl)phenyl)-1,1,1,3,3,3-hexafluoro-2-propanol]	–	–	3.95	2.6
CC1(C#Cc2cc(C(C)(O)C(F)(F)F)ccc2N2CCN(S(=O)(=O)c3cccs3)CC2)COC1 (racemic) [Example 75, 1,1,1-trifluoro-2-(3-((3-methyl-3-oxetanyl)ethynyl)-4-(4-(2-thiophenylsulfonyl)-1-piperazinyl)phenyl)-2-propanol]	–	–	2.9	2.8
C[C@H]1CN(S(=O)(=O)c2nccs2)CCN1c1ccc(C(O)(C(F)(F)F)C(F)(F)F)cc1 [Example 31, 1,1,1,3,3,3-hexafluoro-2-(4-((2S)-2-methyl-4-(1,3-thiazol-2-ylsulfonyl)-1-piperazinyl)phenyl)-2-propanol trifluoroacetate]	–	–	0.561	0.702
CC(O)(c1ccc(N2CCN(S(=O)(=O)c3cccs3)CC2CN2CC(O)C2)cc1)C(F)(F)F (mixture of isomers) [Example 53, 1-((4-(2-thiophenylsulfonyl)-1-(4-(2,2,2-trifluoro-1-hydroxy-1-methylethyl)phenyl)-2-piperazinyl)methyl)-3-azetidinol]	–	–	2.26	1.79
O=S(=O)(c1cccs1)N1CCN(c2ccc(C(O)(C(F)(F)F)C(F)(F)F)cc2)[C@@H](Cc2ccccc2)C1 [Example 64, 2-(4-((2S)-2-benzyl-4-(2-thiophenylsulfonyl)-1-piperazinyl)phenyl)-1,1,1,3,3,3-hexafluoro-2-propanol]	–	–	0.308	0.772
CC(O)(c1ccc(N2CCN(S(=O)(=O)c3cccs3)CC2CN2CCOC(CO)C2)cc1)C(F)(F)F (mixture of isomers) [Example 52, 1,1,1-trifluoro-2-(4-(2-((2-(hydroxymethyl)-4-morpholinyl)methyl)-4-(2-thiophenylsulfonyl)-1-piperazinyl)phenyl)-2-propanol]	–	–	1.62	1.17
O=S(=O)(c1nccs1)N1CCN(c2ccc(C(O)(C(F)(F)F)C(F)(F)F)cc2)CC1 [Example 33, 1,1,1,3,3,3-hexafluoro-2-(4-(4-(1,3-thiazol-2-ylsulfonyl)-1-piperazinyl)phenyl)-2-propanol trifluoroacetate]	–	–	0.664	0.842
CC(O)(c1ccc(N2CCN(S(=O)(=O)c3ccccc3)CC2)cc1)C(F)(F)F (single isomer, unassigned) [Example 24 Peak #1, 1,1,1-trifluoro-2-(4-(4-(phenylsulfonyl)-1-piperazinyl)phenyl)-2-propanol]	–	–	2.57	2.07
Cc1ccc(CC2CN(S(=O)(=O)c3cccs3)CCN2c2ccc(C(O)(C(F)(F)F)C(F)(F)F)cc2)cc1 (racemic) [Example 43, 1,1,1,3,3,3-hexafluoro-2-(4-(2-(4-methylbenzyl)-4-(2-thiophenylsulfonyl)-1-piperazinyl)phenyl)-2-propanol hydrochloride]	–	–	2.5	2.62
Cc1ccccc1S(=O)(=O)N1CCN(c2ccc(C(O)(C(F)(F)F)C(F)(F)F)cc2)CC1 [Example 4, 1,1,1,3,3,3-hexafluoro-2-(4-(4-((2-methylphenyl)sulfonyl)-1-piperazinyl)phenyl)-2-propanol]	–	–	1.27	1.71
CC(O)(c1ccc(N2CCN(S(=O)(=O)c3cccs3)CC2COCc2ccccc2)cc1)C(F)(F)F (mixture of isomers) [Example 44 Step 5, 2-(4-(2-((benzyloxy)methyl)-4-(2-thiophenylsulfonyl)-1-piperazinyl)phenyl)-1,1,1-trifluoro-2-propanol]	–	–	0.42	0.617
CC(O)(c1ccc(N2CCN(S(=O)(=O)c3cccs3)CC2CN2CCC(F)(F)CC2)cc1)C(F)(F)F (mixture of isomers) [Example 51, 2-(4-(2-((4,4-difluoro-1-piperidinyl)methyl)-4-(2-thiophenylsulfonyl)-1-piperazinyl)phenyl)-1,1,1-trifluoro-2-propanol]	–	–	1.05	1.53
O=S(=O)(c1ccccc1)N1CCN(c2ccc(C(O)(C3CC3)C(F)(F)F)cc2)CC1 (racemic) [Example 15, 1-cyclopropyl-2,2,2-trifluoro-1-(4-(4-(phenylsulfonyl)-1-piperazinyl)phenyl)ethanol]	–	–	2.62	2.77
O=S(=O)(c1ccccc1)N1CCN(c2ccc(C(O)(C(F)(F)F)C(F)(F)F)cc2)CC1 [Example 2, 1,1,1,3,3,3-hexafluoro-2-(4-(4-(phenylsulfonyl)-1-piperazinyl)phenyl)-2-propanol]	–	–	0.803	1.1
O=S(=O)(c1ccccc1)c1ccc(-c2ccc(C(O)(C(F)(F)F)C(F)(F)F)cn2)cc1 [Example 17, 1,1,1,3,3,3-hexafluoro-2-(6-(4-(phenylsulfonyl)phenyl)-3-pyridinyl)-2-propanol]	–	–	1.63	1.71
CN(Cc1ccccc1)CC1CN(S(=O)(=O)c2cccs2)CCN1c1ccc(C(C)(O)C(F)(F)F)cc1 (mixture of isomers) [Example 62, 2-(4-(2-((benzyl(methyl)amino)methyl)-4-(2-thiophenylsulfonyl)-1-piperazinyl)phenyl)-1,1,1-trifluoro-2-propanol]	–	–	1.01	1.22
